According to patent publication US9896441B2 (Lycera Corporation, priority 2014, dated 2018):
pEC50: −log10 of the molar value.
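Throughout, for TR-FRET Assay Max Response: 665/615 nm signal ratio set to 100 without ursolic acid or test compound.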

The molecules below were run against T1, RORγ-LBD (Homo sapiens, UniProt P51449) (assay: RORγ-Ligand Binding Domain (LBD) TR-FRET Assay). Details: RORγ-LBD TR-FRET.
T1 construct: made in house; host or cells: SF9 cells (baculovirus); used as diluted lysate
T1 sequence (P51449 269-508 limits assumed): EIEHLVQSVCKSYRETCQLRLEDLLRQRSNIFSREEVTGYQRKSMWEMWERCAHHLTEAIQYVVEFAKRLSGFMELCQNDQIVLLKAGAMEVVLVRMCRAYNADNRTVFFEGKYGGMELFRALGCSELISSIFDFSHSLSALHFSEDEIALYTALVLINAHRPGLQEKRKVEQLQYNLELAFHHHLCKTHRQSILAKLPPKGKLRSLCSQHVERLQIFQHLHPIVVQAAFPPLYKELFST
Format: biochemical
Protocol: Assay procedures and results are described below.
HIS-tagged RORγ-LBD protein was expressed in SF9 cells using a baculovirus expression system. The lysate was diluted in assay buffer (50 mM Tris pH 7.0, 50 mM KCl, 1 mM EDTA, 0.1 mM DTT, 0.01% BSA) to obtain RORγ-LBD final concentration of ˜3 nM in a 384-well assay plate (need to titrate for each batch of protein).
A stock of biotinylated-LXXLL peptide from coactivator SRC1 (Biotin-[…]) was prepared in assay buffer and added to each well (200 nM final concentration). […] RORγ antagonist ursolic acid was also included at a final concentration of 2 μM. Compounds were diluted in DMSO and further diluted in assay buffer with a final DMSO concentration at 1%.
O=S(=O)(c1cccc(C(F)(F)F)c1)N1CCCc2cc(OC3CCCCC3)ccc21 [Example 25L, 6-(cyclohexyloxy)-1-((3-(trifluoromethyl)phenyl)sulfonyl)-1,2,3,4-tetrahydroquinoline] was tested, and the pEC50 was greater than 6.30.
For O=C(O)CC[C@H]1CN(S(=O)(=O)c2cc(C(F)(F)F)cnc2OCCO)c2cc(/C=C3\CCCOC3)ccc2O1 [Example 95X, (S,E)-3-(6-((dihydro-2H-pyran-3(4H)-ylidene)methyl)-4-((2-(2-hydroxyethoxy)-5-(trifluoromethyl)pyridin-3-yl)sulfonyl)-3,4-dihydro-2H-benzo[b][1,4]oxazin-2-yl)propanoic acid], the pEC50 was 5.30 to 6.30.
O=C(O)CC[C@H]1CN(S(=O)(=O)c2cccc(C(F)(F)F)c2)c2cc(/C=C/c3ccnn4cccc34)ccc2O1 [Example 89BM, (S,E)-3-(6-(2-(pynolo[1,2-b]pyridazin-4-yl)vinyl)-4-((3-(trifluoromethyl)phenyl)sulfonyl)-3,4-dihydro-2H-benzo[b][1,4]oxazin-2-yl)propanoic acid] showed a pEC50 of 5.30 to 6.30.
Cn1cc(/C=C/c2ccc3c(c2)N(S(=O)(=O)c2cccc(C(F)(F)F)c2)C[C@H](CCC(=O)O)O3)c(C(F)(F)F)n1 [Example 89BY, (S,E)-3-(6-(2-(1-methyl-3-(trifluoromethyl)-1H-pyrazol-4-yl)vinyl)-4-((3-(trifluoromethyl)-phenyl)sulfonyl)-3,4-dihydro-2H-benzo[b][1,4]oxazin-2-yl)propanoic acid] gave a pEC50 of less than 5.00.
O=C(O)CC[C@H]1CN(S(=O)(=O)c2cccc(C(F)(F)F)c2)c2cc(/C=C/c3c(Cl)cc(Cl)cc3Cl)ccc2O1 [Example 89CL, (S,E)-3-(6-(2,4,6-trichlorostyryl)-4-((3-(trifluoromethyl)-phenyl)sulfonyl)-3,4-dihydro-2H-benzo[b][1,4]oxazin-2-yl)propanoic acid] gave a pEC50 of 5.30 to 6.30.
In the case of CCOc1nn(CC)cc1S(=O)(=O)N1C[C@H](CNC(C)=O)Oc2ccc(NCc3c(F)cccc3Cl)cc21 [Example 28G], the pEC50 was greater than 6.30.
O=S(=O)(c1cccc(C(F)(F)F)c1)N1CCCc2cc(C3CC3)c(OCc3c(F)cccc3Cl)cc21 [Example 28B] was tested, and the pEC50 was greater than 6.30.
COc1cc(S(=O)(=O)N2CCCc3ccc(OCc4c(Cl)cccc4C4CC4)cc32)ccc1F [Example 25S, 7-((2-chloro-6-cyclopropylbenzyl)oxy)-1-((4-fluoro-3-methoxyphenyl)sulfonyl)-1,2,3,4-tetrahydroquinoline] was tested, and the pEC50 was greater than 6.30.
Work on O=S(=O)(c1cccc(C(F)(F)F)c1)N1CCCc2cc(O[C@H]3CCc4ccccc43)ccc21 [Example 25V, (S)-6-((2,3-dihydro-1H-inden-1-yl)oxy)-1-((3-(trifluoromethyl)-phenyl)sulfonyl)-1,2,3,4-tetrahydroquinoline] yielded a pEC50 of 5.30 to 6.30.
Molecule CCCn1ccc(/C=C/c2ccc3c(c2)N(S(=O)(=O)c2cccc(C(F)(F)F)c2)C[C@H](CCC(=O)O)O3)n1 [Example 89BZ, (S,E)-3-(6-(2-(1-propyl-1H-pyrazol-3-yl)vinyl)-4-((3-(trifluoromethyl)phenyl)sulfonyl)-3,4-dihydro-2H-benzo[b][1,4]oxazin-2-yl)propanoic acid] has a pEC50 of less than 5.00.
O=S(=O)(c1cccc(C(F)(F)F)c1)N1CCCc2cc(OCCc3ccccc3)ccc21 [Example 25N, 6-phenethoxy-1-((3-(trifluoromethyl)phenyl)sulfonyl)-1,2,3,4-tetrahydroquinoline] showed a pEC50 greater than 6.30.
For CS(=O)(=O)c1cccc(/C=C/c2ccc3c(c2)N(S(=O)(=O)c2cccc(C(F)(F)F)c2)C[C@H](CCC(=O)O)O3)c1 [Example 89BV, (S,E)-3-(6-(3-(methylsulfonyl)-styryl)-4((3-(trifluoromethyl)-phenyl)sulfonyl)-3,4-dihydro-2H-benzo[b][1,4]oxazin-2-yl)propanoic acid], the pEC50 was less than 5.00.
Work on COc1cc(S(=O)(=O)N2CCCc3cc(OCc4c(F)cccc4Cl)ccc32)ccc1F [Example 25O, 6-((2-chloro-6-fluorobenzyl)oxy)-1-((4-fluoro-3-methoxyphenyl)sulfonyl)-1,2,3,4-tetrahydroquinoline] yielded a pEC50 greater than 6.30.
With COc1cc(S(=O)(=O)N2CCCc3ccc(O[C@@H]4CCc5ccccc54)cc32)ccc1F [Example 25B, (R)-7-((2,3-dihydro-1H-inden-1-yl)oxy)-1-((4-fluoro-3-methoxyphenyl)sulfonyl)-1,2,3,4-tetrahydroquinoline] the pEC50 was greater than 6.30.

Same assay, conditions: RORγ-LBD TR-FRET assay
CCOC(=O)C(C)(C)CC1CC(S(=O)(=O)c2cccc(C(F)(F)F)c2)c2cc(OCc3c(F)cccc3Cl)ccc2O1 (stereo not drawn) [Example 186D, ethyl 3-(6-((2-chloro-6-fluorobenzyl)oxy)-4-((3-(trifluoromethyl)phenyl)-sulfonyl)chroman-2-yl)-2,2-dimethylpropanoate] showed a pEC50 greater than 6.30.
Molecule CNC(=O)N[C@@H]1Cc2ccc(/C=C(\C)c3c(F)cccc3Cl)cc2N(S(=O)(=O)c2cccc(C(F)(F)F)c2)[C@@H]1C [Example 145, 1-((2R,3R)-7-((E)-2-(2-Chloro-6-fluorophenyl)prop-1-en-1-yl)-2-methyl-1-((3-(trifluoromethyl)phenyl)sulfonyl)-1,2,3,4-tetrahydroquinolin-3-yl)-3-methylurea] has a pEC50 greater than 6.30.
Work on C/C(=C\c1ccc2c(c1)C[C@@H](C(=O)O)[C@@H](C)N2S(=O)(=O)c1cccc(C(F)(F)F)c1)c1c(F)cccc1Cl [Example 149, (2R,3R)-6-((E)-2-(2-Chloro-6-fluorophenyl)prop-1-en-1-yl)-2-methyl-1-((3-(trifluoromethyl)phenyl)sulfonyl)-1,2,3,4-tetrahydroquinoline-3-carboxylic acid] yielded a pEC50 of less than 5.00.
COc1cc(S(=O)(=O)N2c3cc(OCc4c(F)cccc4Cl)ccc3C[C@@H](CO)[C@H]2C)ccc1F [Example 151, ((2R,3R)-7-((2-Chloro-6-fluorobenzyl)oxy)-1-((4-fluoro-3-methoxyphenyl)sulfonyl)-2-methyl-1,2,3,4-tetrahydroquinolin-3-yl)methanol] gave a pEC50 greater than 6.30.

Same assay, conditions: RORγ-LBD TR-FRET assay, maximum response
In the case of CCOC(=O)C(C)(C)CC1CC(S(=O)(=O)c2cccc(C(F)(F)F)c2)c2cc(OCc3c(F)cccc3Cl)ccc2O1 (stereo not drawn) [Example 186D, ethyl 3-(6-((2-chloro-6-fluorobenzyl)oxy)-4-((3-(trifluoromethyl)phenyl)-sulfonyl)chroman-2-yl)-2,2-dimethylpropanoate], the “TR-FRET Assay Max Response” value was “*** (a value in the range of greater than 150 to 200)”.
For CNC(=O)N[C@@H]1Cc2ccc(/C=C(\C)c3c(F)cccc3Cl)cc2N(S(=O)(=O)c2cccc(C(F)(F)F)c2)[C@@H]1C [Example 145, 1-((2R,3R)-7-((E)-2-(2-Chloro-6-fluorophenyl)prop-1-en-1-yl)-2-methyl-1-((3-(trifluoromethyl)phenyl)sulfonyl)-1,2,3,4-tetrahydroquinolin-3-yl)-3-methylurea], the “TR-FRET Assay Max Response” value was “** (a value in the range of greater than 90 to 150)”.
With COc1cc(S(=O)(=O)N2c3cc(OCc4c(F)cccc4Cl)ccc3C[C@@H](CO)[C@H]2C)ccc1F [Example 151, ((2R,3R)-7-((2-Chloro-6-fluorobenzyl)oxy)-1-((4-fluoro-3-methoxyphenyl)sulfonyl)-2-methyl-1,2,3,4-tetrahydroquinolin-3-yl)methanol] the “TR-FRET Assay Max Response” value was “** (a value in the range of greater than 90 to 150)”.

Same assay, conditions: with 2 μM ursolic acid (RORγ antagonist); highest test concentration 10 μM
Work on Cc1nn(C(F)F)cc1S(=O)(=O)N1CC(C(=O)O)Cc2ccc(OCc3c(F)cccc3Cl)cc21 (stereo not drawn) yielded a pEC50 of 5.30 to 6.30.
Work on CC(C)(C)c1ccc(COc2ccc3c(c2)N(S(=O)(=O)c2cccc(C(F)(F)F)c2)CC(C(=O)O)C3)cc1 (stereo not drawn) yielded a pEC50 of less than 5.00.
CCOc1nn(CC)cc1S(=O)(=O)N1CC(CO)Cc2ccc(OCc3c(F)cccc3Cl)cc21 (stereo not drawn) gave a pEC50 greater than 6.30.
For O=C(O)C1Cc2ccc(OCc3cc(F)ccc3Cl)cc2N(S(=O)(=O)c2cccc(C(F)(F)F)c2)C1 (stereo not drawn), the pEC50 was greater than 6.30.
O=C(O)C1Cc2ccc(OCc3ccccc3F)cc2N(S(=O)(=O)c2cccc(C(F)(F)F)c2)C1 (stereo not drawn) was tested, and the pEC50 was greater than 6.30.
COC(=O)CCC[C@H]1CN(S(=O)(=O)c2cccc(C(F)(F)F)c2)c2cc(/C=C(\C)c3c(F)cccc3Cl)ccc2O1 [Example 195H, methyl (S,E)-4-(6-(2-(2-chloro-6-fluorophenyl)prop-1-en-1-yl)-4-((3-(trifluoromethyl)phenyl)-sulfonyl)-3,4-dihydro-2H-benzo[b][1,4]oxazin-2-yl)butanoate] gave a pEC50 greater than 6.30.
Molecule O=C(O)C1Cc2ccc(OCc3ccc4ccccc4c3)cc2N(S(=O)(=O)c2cccc(C(F)(F)F)c2)C1 (stereo not drawn) has a pEC50 of less than 5.00.
In the case of Cc1ccc(COc2ccc3c(c2)N(S(=O)(=O)c2cccc(C(F)(F)F)c2)CC(C(=O)O)C3)cc1F (stereo not drawn), the pEC50 was less than 5.00.
Molecule O=C(O)C1Cc2ccc(OCc3ccc(C(F)(F)F)c(F)c3)cc2N(S(=O)(=O)c2cccc(C(F)(F)F)c2)C1 (stereo not drawn) has a pEC50 of 5.00 to 5.30.
